Source: patent publication US7517873B2, “Substituted pyrimidodiazepines” (Hoffman-La Roche Inc., priority 2007, dated 2009)

biological target: T1, GST-PLK1 (Homo sapiens, UniProt P53350); assay: Biochemical Characterization Assay: GST-PLK1 kinase HTRF assay with GST-p53 substrate; conditions: full-length GST-PLK1, GST-p53 and ATP, 37° C. for 35 minutes, HTRF signal
T1 construct: Full-length, active GST-PLK1 is purified from Sf9 insect cells; made in house; host or cells: Sf9 insect cells
Experimental: Biochemical Characterization Assay
Full-length, active GST-PLK1 is purified from Sf9 insect cells, and full-length GST-p53 is purified from E. coli. Anti-phospho p53 antibody is from Cell Signaling Technology. Europium-conjugated anti-rabbit antibody is from PerkinElmer Life and Analytical Sciences. APC-conjugated anti-GST antibody is from Prozyme.
To assay compounds of the invention, two microliters of test compound (0.6 nM-4 mM) in DMSO or plain DMSO for control wells, 38 microliters of 20 mM HEPES pH 7, 50 mM NaCl, 10 mM MgCl2, 0.5 mM TCEP, 0.1 mM sodium orthovanadate, 0.1 mg/mL BSA, and 0.05% Triton X-100 (Kinase Assay Buffer) are added. […] Six microliters of GST-PLK1 (3 ug/mL) in Kinase Assay Buffer are then added and the solution incubated at 37° C. for 35 minutes. Six microliters of solution containing 43 mM EDTA to stop the reaction and a 1:600 dilution of anti-phospho-p53 antibody in 20 mM HEPES pH 7, 50 mM NaCl, and 0.5 mg/mL BSA (Antibody Binding Buffer) are added and the solution incubated at 37° C. for 30 minutes. […] The HTRF signal is read on an Envision reader from PerkinElmer Life and Analytical Sciences.

T1 sequence (P53350 whole entry): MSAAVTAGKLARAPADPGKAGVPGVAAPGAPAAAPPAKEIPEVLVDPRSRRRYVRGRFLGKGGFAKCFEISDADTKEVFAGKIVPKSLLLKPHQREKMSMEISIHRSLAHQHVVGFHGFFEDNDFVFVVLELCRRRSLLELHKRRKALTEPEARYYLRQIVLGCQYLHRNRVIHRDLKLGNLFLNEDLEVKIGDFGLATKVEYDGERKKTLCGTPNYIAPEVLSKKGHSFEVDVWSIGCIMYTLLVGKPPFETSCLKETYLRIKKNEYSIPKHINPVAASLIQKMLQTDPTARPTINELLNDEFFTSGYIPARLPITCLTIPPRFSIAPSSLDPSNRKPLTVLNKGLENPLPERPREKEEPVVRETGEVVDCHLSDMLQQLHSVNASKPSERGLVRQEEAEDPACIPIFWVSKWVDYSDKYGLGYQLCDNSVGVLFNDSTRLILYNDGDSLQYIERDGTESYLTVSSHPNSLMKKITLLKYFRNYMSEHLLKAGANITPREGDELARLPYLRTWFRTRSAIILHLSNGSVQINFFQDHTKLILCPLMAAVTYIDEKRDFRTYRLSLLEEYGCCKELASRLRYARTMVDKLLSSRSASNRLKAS

Row | IC50 [nM] | Compound
1 | < 500 | COc1cc(C(=O)NC2CCN(C)CC2)ccc1Nc1ncc2c(n1)N(C1CCCCC1)CC(C)C(=O)N2C (racemic) [I-19, (rac)-4-(9-Cyclohexyl-5,7-dimethyl-6-oxo-6,7,8,9-tetrahydro-5H-pyrimido[4,5-b][1,4]diazepin-2-ylamino)-3-methoxy-N-(1-methyl-piperidin-4-yl)-benzamide]
2 | 500 to 5000 | CCN1CCC(NC(=O)c2cccc(Nc3ncc4c(n3)N(C3CCCC3)CC(C)C(=O)N4C)c2)CC1 (racemic) [I-89, (rac)-3-(9-Cyclopentyl-5,7-dimethyl-6-oxo-6,7,8,9-tetrahydro-5H-pyrimido[4,5-b][1,4]diazepin-2-ylamino)-N-(1-ethyl-piperidin-4-yl)-benzamide]
3 | 500 to 5000 | CC1CN(C2CCCC2)c2nc(Nc3cccc(C(=O)NC4CCOCC4)c3)ncc2N(C)C1=O (racemic) [I-71, (rac)-3-(9-Cyclopentyl-5,7-dimethyl-6-oxo-6,7,8,9-tetrahydro-5H-pyrimido[4,5-b][1,4]diazepin-2-ylamino)-N-(tetrahydro-pyran-4-yl)-benzamide]
4 | < 500 | COc1cc(C(=O)NC2CCN(C)CC2)ccc1Nc1ncc2c(n1)N(C1CCCC1)CC(C)C(=O)N2C (racemic) [I-2, (rac)-4-(9-Cyclopentyl-5,7-dimethyl-6-oxo-6,7,8,9-tetrahydro-5H-pyrimido[4,5-b][1,4]diazepin-2-ylamino)-3-methoxy-N-(1-methyl-piperidin-4-yl)-benzamide]
5 | > 5000 | CC1CN(C2CCCC2)c2nc(Nc3ccc(C(=O)Nc4ccncc4)c(Cl)c3)ncc2N(C)C1=O (racemic) [I-86, (rac)-2-Chloro-4-(9-cyclopentyl-5,7-dimethyl-6-oxo-6,7,8,9-tetrahydro-5H-pyrimido[4,5-b][1,4]diazepin-2-ylamino)-N-pyridin-4-yl-benzamide]
6 | < 500 | COc1ccc(C(=O)NC2CCOCC2)cc1Nc1ncc2c(n1)N(C1CCCC1)CC(C)C(=O)N2C (racemic) [I-74, (rac)-3-(9-Cyclopentyl-5,7-dimethyl-6-oxo-6,7,8,9-tetrahydro-5H-pyrimido[4,5-b][1,4]diazepin-2-ylamino)-4-methoxy-N-(tetrahydro-pyran-4-yl)-benzamide]
7 | 500 to 5000 | CCC1CN(C2CCCC2)c2nc(Nc3ccc(C(=O)NC4CCN(C)CC4)cc3OC)ncc2N(CC)C1=O (racemic) [I-15, (rac)-4-(9-Cyclopentyl-5,7-diethyl-6-oxo-6,7,8,9-tetrahydro-5H-pyrimido[4,5-b][1,4]diazepin-2-ylamino)-3-methoxy-N-(1-methyl-piperidin-4-yl)-benzamide]
8 | < 500 | COc1cc(C(=O)NC2CCN(C)CC2)ccc1Nc1ncc2c(n1)N(C1CCCC1)C(C)C(C)C(=O)N2C (racemic) [I-41, (rac)-4-(9-Cyclopentyl-5,7,8-trimethyl-6-oxo-6,7,8,9-tetrahydro-5H-pyrimido[4,5-b][1,4]diazepin-2-ylamino)-3-methoxy-N-(1-methyl-piperidin-4-yl)-benzamide]
9 | < 500 | COc1cc(C(=O)NC2CCN(C)CC2)ccc1Nc1ncc2c(n1)N(C1CCC1)CC(C)C(=O)N2C (racemic) [I-52, (rac)-4-(9-Cyclobutyl-5,7-dimethyl-6-oxo-6,7,8,9-tetrahydro-5H-pyrimido[4,5-b][1,4]diazepin-2-ylamino)-3-methoxy-N-(1-methyl-piperidin-4-yl)-benzamide]
10 | < 500 | CC1CN(C2CCCC2)c2nc(Nc3ccc(C(=O)NC4CCN(C)CC4)cc3)ncc2N(C)C1=O (racemic) [I-6, (rac)-4-(9-Cyclopentyl-5,7-dimethyl-6-oxo-6,7,8,9-tetrahydro-5H-pyrimido[4,5-b][1,4]diazepin-2-ylamino)-N-(1-methyl-piperidin-4-yl)-benzamide]
11 | < 500 | COc1cc(C(=O)NC2CCN(C)CC2)ccc1Nc1ncc2c(n1)N(C1CCCC1)C1CCCC1C(=O)N2C (racemic) [I-68, (rac)-4-(4-Cyclopentyl-9-methyl-10-oxo-1,2,3,3a,4,9,10,10a-octahydro-4,5,7,9-tetraaza-benzo[f]azulen-6-ylamino)-3-methoxy-N-(1-methyl-piperidin-4-yl)-benzamide]
12 | < 500 | COc1cc(C(=O)NC2CCN(C)CC2)ccc1Nc1ncc2c(n1)N(C1CCCC1)CC1(CC1)C(=O)N2C [I-54, 4-[(9-Cyclopentyl-6,7,8,9-tetrahydro-5-methyl-6-oxospiro[5H-pyrimido[4,5-b][1,4]diazepine-7,1′-cyclopropan]-2-yl)amino]-3-methoxy-N-(1-methyl-4-piperidinyl)benzamide]
13 | 500 to 5000 | CC1CN(C2CCCC2)c2nc(Nc3ccc(O)c(NC(=O)c4ccncc4)c3)ncc2N(C)C1=O (racemic) [I-48, (rac)-N-[5-(9-Cyclopentyl-5,7-dimethyl-6-oxo-6,7,8,9-tetrahydro-5H-pyrimido[4,5-b][1,4]diazepin-2-ylamino)-2-hydroxy-phenyl]-isonicotinamide]
14 | < 500 | CCCCN1CCC(=O)N(C)c2cnc(Nc3ccc(C(=O)NC4CCN(C)CC4)cc3OC)nc21 [I-44, 4-(9-Butyl-5-methyl-6-oxo-6,7,8,9-tetrahydro-5H-pyrimido[4,5-b][1,4]diazepin-2-ylamino)-3-methoxy-N-(1-methyl-piperidin-4-yl)-benzamide]
15 | 500 to 5000 | CC1CN(C2CCCC2)c2nc(Nc3cccc(C(=O)NCCN(C)C)c3)ncc2N(C)C1=O (racemic) [I-93, (rac)-3-(9-Cyclopentyl-5,7-dimethyl-6-oxo-6,7,8,9-tetrahydro-5H-pyrimido[4,5-b][1,4]diazepin-2-ylamino)-N-(2-dimethylamino-ethyl)-benzamide]
16 | < 500 | CN1C(=O)C2(CC2)CN(C2CCCC2)c2nc(Nc3ccc(C(=O)NC4CCOCC4)cc3)ncc21 [I-63, 4-[(9-Cyclopentyl-6,7,8,9-tetrahydro-5-methyl-6-oxospiro[5H-pyrimido[4,5-b][1,4]diazepine-7,1′-cyclopropan]-2-yl)amino]-N-(tetrahydropyran-4-yl)benzamide]
17 | 500 to 5000 | COCCN1CCC(=O)N(C)c2cnc(Nc3ccc(C(=O)NC4CCN(C)CC4)cc3OC)nc21 [I-40, 3-Methoxy-4-[9-(2-methoxy-ethyl)-5-methyl-6-oxo-6,7,8,9-tetrahydro-5H-pyrimido[4,5-b][1,4]diazepin-2-ylamino]-N-(1-methyl-piperidin-4-yl)-benzamide]
18 | > 5000 | COc1cc(C(=O)N(C)C)ccc1Nc1ncc2c(n1)N(C1CCC1)CCC(=O)N2C [I-35, 4-(9-Cyclobutyl-5-methyl-6-oxo-6,7,8,9-tetrahydro-5H-pyrimido[4,5-b][1,4]diazepin-2-ylamino)-3-methoxy-N,N-dimethyl-benzamide]
19 | < 500 | COc1cc(C(=O)NC2CCN(C)CC2)ccc1Nc1ncc2c(n1)N(C(C)C)CCC(=O)N2C [I-43, 4-(9-Isopropyl-5-methyl-6-oxo-6,7,8,9-tetrahydro-5H-pyrimido[4,5-b][1,4]diazepin-2-ylamino)-3-methoxy-N-(1-methyl-piperidin-4-yl)-benzamide]
20 | < 500 | COc1cc(C(=O)NC2CCN(C)CC2)ccc1Nc1ncc2c(n1)N(C1CCCC1)C(C)CC(=O)N2C (racemic) [I-4, (rac)-4-(9-Cyclopentyl-5,8-dimethyl-6-oxo-6,7,8,9-tetrahydro-5H-pyrimido[4,5-b][1,4]diazepin-2-ylamino)-3-methoxy-N-(1-methyl-piperidin-4-yl)-benzamide]
21 | < 500 | CC1CN(C2CCCC2)c2nc(Nc3ccc(C(=O)NC4CCN(C)CC4)c(Cl)c3)ncc2N(C)C1=O (racemic) [I-84, (rac)-2-Chloro-4-(9-cyclopentyl-5,7-dimethyl-6-oxo-6,7,8,9-tetrahydro-5H-pyrimido[4,5-b][1,4]diazepin-2-ylamino)-N-(1-methyl-piperidin-4-yl)-benzamide]
22 | < 500 | COc1cc(C(=O)NC2CCN(C)CC2)ccc1Nc1ncc2c(n1)N(C1CCCC1C)CCC(=O)N2C (racemic) [I-57, (rac)-3-Methoxy-4-[5-methyl-9-(2-methyl-cyclopentyl)-6-oxo-6,7,8,9-tetrahydro-5H-pyrimido[4,5-b][1,4]diazepin-2-ylamino]-N-(1-methyl-piperidin-4-yl)-benzamide]
23 | 500 to 5000 | COc1cc(C(=O)NC2CCN(C)CC2)ccc1Nc1ncc2c(n1)N(Cc1ccccc1)CCC(=O)N2C [I-22, 4-(9-Benzyl-5-methyl-6-oxo-6,7,8,9-tetrahydro-5H-pyrimido[4,5-b][1,4]diazepin-2-ylamino)-3-methoxy-N-(1-methyl-piperidin-4-yl)-benzamide]
24 | 500 to 5000 | COc1cc(C(N)=O)ccc1Nc1ncc2c(n1)N(C1CCC1)CCC(=O)N2C [I-34, 4-(9-Cyclobutyl-5-methyl-6-oxo-6,7,8,9-tetrahydro-5H-pyrimido[4,5-b][1,4]diazepin-2-ylamino)-3-methoxy-benzamide]
25 | > 5000 | COc1ccccc1Nc1ncc2c(n1)N(C1CCC1)CCC(=O)N2C [I-25, 9-Cyclobutyl-2-(2-methoxy-phenylamino)-5-methyl-5,7,8,9-tetrahydro-pyrimido[4,5-b][1,4]diazepin-6-one]
26 | < 500 | CCC1CN(C2CCCC2)c2nc(Nc3ccc(C(=O)NC4CCN(C)CC4)cc3OC)ncc2N(C)C1=O (racemic) [I-13, (rac)-4-(9-Cyclopentyl-7-ethyl-5-methyl-6-oxo-6,7,8,9-tetrahydro-5H-pyrimido[4,5-b][1,4]diazepin-2-ylamino)-3-methoxy-N-(1-methyl-piperidin-4-yl)-benzamide]
